According to patent US11597737B2, “Small molecule inhibitors selective for polo-like kinase proteins” (UNIVERSITY OF SOUTH CAROLINA, priority 2016, dated 2023):

Assays:
PC3 cells [1] = assay: Cell cycle analysis after release (DAPI/BrdU FACS), FIG. 3; type: cell-based; details: FIG. 3 4th panel, concentration not given
Experimental: PLK specificity can be useful in therapeutic applications, as well as in research-oriented application.
(§1) Analysis of Cell Cycle Progression by FACS
(§2) Serum-Starved Synchronization
(§3) Cells were synchronized in G1 by serum starvation. Briefly, exponentially growing cells were plated overnight. Media (DMEM, 10% FBS, 1% Pen. Strep.) was then removed and replaced with media containing no FBS. Cells were starved for 72 hours then treated for 24 hours with inhibitor. Following treatment, cells were harvested and processed for endpoint experimental analysis.
(§4) Ethanol fixative was removed by centrifugation and the cells were washed with 1 mL ice-cold PBS/1% BSA. Cells were denatured by resuspending in 0.2 mg/mL pepsin in 2N HCl and incubated in 37° C. water bath for 15 minutes. Hydrolysis was then terminated by adding 1 M Invitrogen™ Novex® Tris-Glycine. Cells were then washed with PBS/1% BSA then the primary anti-BrdU antibody (1:100 dilution in TBFP; 0.5% Tween-20, 1% BSA, 1% FBS, PBS) was added and cells were incubated for 25 minutes in the dark, at room temperature. […] Cells were washed once more with PBS/1% BSA and re-suspended in DAPI for 30 minutes before being analyzed by flow cytometry.

PLK1 PBD (367-603) = target: T1, PLK1 PBD (367-603) (Homo sapiens, UniProt P53350); assay: Fluorescence polarization assay, PLK1 PBD; type: binding
T1 construct: PLK1 PBD (367-603); purchased BPS Biosciences Inc. (San Diego, Calif.)
T1 sequence (P53350 367-603): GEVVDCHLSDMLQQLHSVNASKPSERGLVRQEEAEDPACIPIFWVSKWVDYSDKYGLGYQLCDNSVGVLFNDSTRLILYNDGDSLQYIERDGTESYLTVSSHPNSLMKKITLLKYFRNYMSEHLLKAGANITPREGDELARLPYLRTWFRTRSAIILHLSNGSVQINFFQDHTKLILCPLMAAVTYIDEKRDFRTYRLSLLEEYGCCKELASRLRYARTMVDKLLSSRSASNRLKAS
Experimental: Fluorescence Polarization Assay
Materials were dissolved in DMSO (10 mM) and diluted from 10 nM to 600 μM (maximum of 6% DMSO tolerance in the assay). […] Incubation was carried out at room temperature for 45 minutes. Fluorescence was measured using a DTX 880 plate reader and Multimode Analysis software (Beckman Coulter, Brea, Calif.). […] Each data point was performed in triplicate for every experiment, and experiments were performed at least three times. An IC50 value for each compound was calculated from linear regression analysis of the plots.

[2] = tested on: HeLa cervical cancer cells; assay: Cell viability assay (MTT), HeLa; type: cell-based; details: MTT, 72 hours; read-out: HeLa
Experimental: HeLa cervical cancer cells were obtained from ATCC (Manassas, Va.). […] Cells were maintained in DMEM (Invitrogen™, Carlsebad, Calif.) supplemented with 10% FBS or Corning© Nu-Serum™ (BD™ Biosciences, Franklin Lakes, N.J.) and 1% penicillin/streptomycin (Invitrogen™) in a humidified incubator and 5% CO2 at 37° C.
(§5) Exponentially growing cells were plated in 96-well dishes. Dose response curves were used to treat cells for 72 hours with inhibitors. Following the three-day treatment, cell viability was measured using the MTT (3-(4,5-dimethylthiazol-2-yl)-2,5-diphenyltetrazolium bromide) colorimetric assay. Cells were incubated for 3 hours with MTT allowing viable cells to metabolize the tetrazolium dye to a purple colored solution.

[3] = tested on: PTEN deficient prostate cancer (PC3) cells; assay: Cell viability assay (MTT), PC3; type: cell-based; details: MTT, 72 hours; read-out: PCC-3
Experimental: PC3 prostate cancer cells were maintained in DMEM (Invitrogen™, Carlsebad, Calif.) supplemented with 10% FBS or Corning® Nu-Serum™ (BD™ Biosciences, Franklin Lakes, N.J.) and 1% penicillin/streptomycin (Invitrogen™) in a humidified incubator and 5% C02 at 37° C.
as §5

full length PLK1 = target: T2, full length PLK1 (Homo sapiens, UniProt P53350); assay: PLK1 kinase inhibition assay (CycLex ELISA); type: biochemical; details: 7.5 μM ATP, read-out: PLK1 Kinase Inhibitory Act. IC50
T2 construct: This ELISA assay measures the catalytic activity of full length PLK1 for a defined substrate
T2 sequence (P53350 whole entry): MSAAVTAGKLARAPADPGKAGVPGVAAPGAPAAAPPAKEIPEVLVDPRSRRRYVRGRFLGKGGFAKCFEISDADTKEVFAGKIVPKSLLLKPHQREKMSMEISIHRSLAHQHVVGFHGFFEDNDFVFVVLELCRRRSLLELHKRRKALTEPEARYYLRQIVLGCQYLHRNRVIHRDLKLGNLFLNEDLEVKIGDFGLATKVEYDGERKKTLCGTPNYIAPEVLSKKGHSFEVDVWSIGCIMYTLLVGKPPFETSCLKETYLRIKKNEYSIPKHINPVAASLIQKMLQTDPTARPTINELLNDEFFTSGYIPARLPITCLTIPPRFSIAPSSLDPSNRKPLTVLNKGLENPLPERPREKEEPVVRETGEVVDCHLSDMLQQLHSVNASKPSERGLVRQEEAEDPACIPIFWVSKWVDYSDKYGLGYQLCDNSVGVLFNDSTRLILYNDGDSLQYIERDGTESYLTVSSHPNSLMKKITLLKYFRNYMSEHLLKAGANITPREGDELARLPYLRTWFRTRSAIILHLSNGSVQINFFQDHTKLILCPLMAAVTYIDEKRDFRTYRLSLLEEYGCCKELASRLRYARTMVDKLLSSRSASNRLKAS
From the text: PLK1 Kinase Inhibition Assay
The CycLex® Polo-like Kinase 1 Assay/Inhibitor Screening Kit was used to measure catalytic inhibition (MBL Life Science, Nagano, Japan). This ELISA assay measures the catalytic activity of full length PLK1 for a defined substrate, which is detected by an anti-phospho-threonine antibody (PPT-07) and peroxidase coupled secondary antibody. […] Peroxidase catalyzes the conversion of the colorless solution to yellow, which was quantified using a DTX 880 plate reader. Absorbance measurements (450 nm) were plotted to calculate activity in each sample, and % inhibition was calculated in the wells relative to activity in the absence of inhibitor.

[4] = tested on: HCT-116 (p53−/−) colon cancer cells; assay: Cell viability assay (MTT), HCT116 p53-/-; type: cell-based; details: 72 hours
Experimental: HCT-116 (p53+/+ and −/−) colon cancer cells were maintained DMEM (Invitrogen™, Carlsebad, Calif.) supplemented with 10% FBS or Nu-serum (BD™ Biosciences, Franklin Lakes, N.J.) and 1% penicillin/streptomycin (Invitrogen™) in a humidified incubator and 5% C02 at 37° C.
as §5, with “solution. Absorbance measurements (595 nm) were quantified using a DTX 880 plate reader and IC50 values were generated for FLIPs.” for “solution.”

[5] = tested on: HCT-116 (p53+/+) colon cancer cells; assay: Cell viability assay (MTT), HCT116 p53+/+; type: cell-based; details: 72 hours
Experimental: as §5

[6] = tested on: KRAS mutant lung cancer (A-549) cells; assay: Cell viability assay (MTT), A-549; type: cell-based; details: 72 hours
Experimental: A-549 lung cancer cells were maintained in Hams F-12 1× with glutamine (Corning® Cellgro, Manassas, Va.), and supplemented with 10% FBS or Corning® Nu-Serum™ (BD™ Biosciences, Franklin Lakes, N.J.) and 1% penicillin/streptomycin (Invitrogen™) in a humidified incubator and 5% C02 at 37° C.
as §5, with “solution. Absorbance measurements (595 nm) were quantified using a DTX 880 plate reader and IC50 values were generated for FLIPs.” for “solution.”

PC3 cells [7] = assay: Cell cycle analysis and BrdU pulse labeling in PC3 cells, FIG. 9-11; type: cell-based
Experimental: as §1, §2, §3, §4
The PLK1 PBD-inhibitors were analyzed further by cell cycle analysis in PC3 cells (FIG. 9). […] To quantify the percentage of cells actively proliferating (synthesizing their DNA) or arrested Bromodeoxyuridine (BrdU) pulse labeling was carried out and analyzed by flow cytometry.

[8] = Cell cycle analysis and caspase apoptosis assay; type: cell-based
From the text: Disclosed small molecule inhibitors can also encourage apoptosis.

For CCCCCCCCc1ccc(C(=O)Nc2ccc(C)cc2C(=O)O)cc1 [SCCP ID No. 5915], the “G2/M by DAPI” value (PC3 cells [1]) was 42%, the “cells BrdU+” value (PC3 cells [1]) was 13% and the “PLK1 versus PLK3 specificity (in words)” value (PLK1 PBD (367-603); PBD binding) was “high selectivity for PLK1”. For the same compound, the IC50 (PLK1 PBD (367-603); PLK1 PBD binding, fluorescence polarization, read-out: PLK1 IC50) was 2.16 ± 0.01 µM, the IC50 [2] was 15.5 ± 1.7 µM and the IC50 [3] was 16.3 ± 2.1 µM. For the same compound, the IC50 (full length PLK1) was 24.3 µM, the IC50 [4] was 10 ± 1 µM and the IC50 [5] was 17.4 ± 5.6 µM. For the same compound, the IC50 [6] was 5.1 ± 1.5 µM, the “cells replicating their DNA (BrdU labeling)” value (PC3 cells [7]; 5 μM) was 28.3% and the “BrdU+” value (PC3 cells [7]; 15 μM) was 3.6%. The “cell cycle phenotype (in words)” value (PC3 cells [7]; 15 μM) was “G1 delay or arrest” and the “levels of apoptosis (in words)” value [8] was “high levels of apoptosis”.
